In patent publication US10780067B2, “Endoxifen for local transdermal therapy to the breast” (Northwestern University, priority 2016, dated 2020):

Key:
[1] = BESS quality of life questionnaire and CTCAE adverse events, presurgical trial; type: in vivo, human
Source text: (§1) All participants provided informed consent. Baseline assessments included a history and physical, explanation of gel application, completion of the Breast Cancer Prevention Trial Eight Symptom Scale (BESS) questionnaire, collection of a venous blood sample, and collection of nipple aspirate fluid (NAF) from NAF yielders. […] Treatment began within 5 days post-randomization and ended on the day prior to surgical resection. Participants were instructed to apply the gel to the entire skin envelope of each breast each morning, after a shower. Duration of therapy was 6-10 weeks. Compliance was assessed through participant diaries, counts of returned pills and of returned gel canisters. Participants who took at least 80% of the prescribed dose were considered compliant.
The BESS Questionnaire was repeated at day 15 and at the end of treatment (1 day before surgery or day of surgery), and the post-surgical visit (approximately 7-14 days after surgery).
For continuous variables in the immunochemistry, drug concentration, and blood coagulation data, means and standard deviations are reported; the significance of changes between baseline and post-treatment within groups were evaluated with the paired t-test, and differences between treatment groups assessed using the unpaired t-test. For categorized demographic data, we examined the association of these variables with treatment group via Fisher's exact test. For the analysis of quality of life, the 33 symptoms in the BESS Questionnaire were divided into eight clusters as described by Cella et. al.. The mean score within each cluster was used to evaluate significance of changes from baseline to posttreatment within groups as well as the differences between treatment groups using the Wilcoxon signed-rank test.

SHBG = experiment: Plasma SHBG ELISA, presurgical trial; type: in vivo, human; details: mean ± SD
Experimental: (§2) Plasma samples collected with anticoagulant K3-EDTA were used for human IGF-1 and SHBG assays, and coagulation protein assays (factor VIII, factor IX, von Willebrand factor, and protein S)[23]. The human IGF-1 and SHBG assays were performed with Quantikine Enzyme-linked immunosorbent assay (ELISA) Kits (R&D Systems, Cat # DG100 for IGF-1, and Cat # DSHBGO for SHBG assay). The lower limit of detection was 56 pg/ml, and 5 pmol/L; % CV values were 4.3 and 5.6 for IGF-1, and SHBG assay, respectively. Factor VIII, and factor IX were determined with VisuLize™ antigen ELISA kits (Affinity Biologicals Inc.). von Willebrand factor was measured with immune-turbidimetric assay (Diagnostica Stago Inc. Cat #00518) by STAR analyzer, and total protein S was assayed with an ELISA kit (REAADSR Inc.)

IGF-1 = experiment: Plasma IGF-1 ELISA, presurgical trial; type: in vivo, human; details: mean ± SD
Experimental: as §2

DCIS lesions = experiment: Ki-67 labeling index by immunohistochemistry, phase II presurgical trial of 4-OHT gel vs oral tamoxifen; type: in vivo, human; details: for Ki-67 baseline: Ki-67 LI of DCIS lesions before treatment
Source text: Women at risk for thromboembolic disease were excluded, as were those with a history of exogenous hormone use within the past month, and tamoxifen or raloxifene use within the past two years. Randomization was stratified by menopausal status, and enrollment site. Initially, the FDA required exclusions for grade 3 and comedo-type DCIS, mammographic DCIS size of >5 cm, and palpable lesions; these were removed following enrollment of nine subjects in the first year.
as §1
Assessments similar to those performed at baseline were repeated on the day prior to, or on the morning of surgery. During surgery, breast adipose tissue from the surgical sample was snap frozen and stored at −80° C. for measurement of tamoxifen and metabolites. The samples were obtained from a location adjacent to the DCIS lesion to provide uniformity between participants undergoing breast conservation and mastectomy. The paraffin block of the core and excision samples were acquired by the recruiting institution and 10 sections from each specimen were submitted to the NU Pathology Core Facility. The sections were cut in batches (with pre- and post-treatment samples in the same batch), shipped cold, and processed for immunohistochemistry within four weeks.
Secondary endpoints were 1) to compare concentrations of tamoxifen and its metabolites [4-OHT, endoxifen, N-desmethyl tamoxifen (NDT)] in breast tissue, plasma and NAF obtained on the day of surgery; 2) to assess changes in known tamoxifenmodulated pathways in the breast (COX-2 and maspin protein expression, [19,20]) and plasma (SHBG, IGF-1 [14]). Side effect endpoints were 1) the incidence of hot flashes at baseline and before surgery; 2) changes in coagulation related proteins in women on the gel and the oral arms from baseline to immediately before surgery.
Immunohistochemical (IHC) assessment of these markers was performed on paraffin embedded sections of the core and excision specimens, using standard IHC techniques and MCF7, HCT116 and H292 cells as controls. For maspin we used primary mouse monoclonal antibody (Clone-G167-70,BD Pharmingen, San Jose, Calif.), dilution 1:200; for COX-2, primary mouse monoclonal antibody (Clone-CX-294, Dako, Denmark), dilution 1:100-; and for Ki67, primary mouse monoclonal antibody (Clone-MIB-1, Dako, Denmark), dilution 1:100-antigen. Dako Envision Plus system HRP labeled polymer for 20 min at 37° C. was used as the detection system. Scoring was performed on DCIS lesions only, with manual counting of positively stained DCIS cells. The Ki67 LI was assessed on an average of 300 DCIS cells at 40× magnification. The H score system (Score range: 0-300) was used for COX-2 and maspin markers by a single observer who was blinded to treatment status, with random verification of 20% of slides by a pathologist (PK).

[2] = oral-T vs 4-OHT gel 2 mg daily, 2-3 weeks; cited from earlier work
total protein S = experiment: Plasma total protein S ELISA, presurgical trial; type: in vivo, human; details: mean ± SD
Experimental: as §2

von Willebrand factor = experiment: Plasma von Willebrand factor immuno-turbidimetric assay, presurgical trial; type: in vivo, human; details: mean ± SD
Experimental: as §2

## CC/C(=C(\c1ccccc1)c1ccc(OCCN(C)C)cc1)c1ccccc1 [Tamoxifen, (Z)-tamoxifen]
[1]; hot flashes, night sweats, cold sweats, mean score ± SD
  BESS Vasomotor symptom cluster, baseline: 0.33 ± 0.45
[1]; mean score ± SD
  BESS Bladder symptom cluster, Changes from baseline: 0.11 ± 0.49
  BESS Bladder symptom cluster, baseline: 0.14 ± 0.36
  BESS Bladder symptom cluster, post-treatment: 0.25 ± 0.33
  BESS Body Image symptom cluster, Changes from baseline: −0.04 ± 0.87
  BESS Body Image symptom cluster, baseline: 0.68 ± 0.77
  BESS Body Image symptom cluster, post-treatment: 0.64 ± 0.89
  BESS Body pain symptom cluster, Changes from baseline: 0.43 ± 0.92
  BESS Body pain symptom cluster, baseline: 0.76 ± 1.12
  BESS Body pain symptom cluster, post-treatment: 1.19 ± 1.11
  BESS Cognitive symptom cluster, Changes from baseline: 0.10 ± 0.86
  BESS Cognitive symptom cluster, baseline: 0.62 ± 0.61
  BESS Cognitive symptom cluster, post-treatment: 0.71 ± 1.18
  BESS Gastrointestinal symptom cluster, Changes from baseline: −0.10 ± 0.24
  BESS Gastrointestinal symptom cluster, baseline: 0.12 ± 0.31
  BESS Gastrointestinal symptom cluster, post-treatment: 0.02 ± 0.09
  BESS Sexual problems symptom cluster, Changes from baseline: −0.21 ± 0.54
  BESS Sexual problems symptom cluster, baseline: 0.32 ± 0.72
  BESS Sexual problems symptom cluster, post-treatment: 0.11 ± 0.40
  BESS Vaginal symptom cluster, Changes from baseline: 0.07 ± 0.19
  BESS Vaginal symptom cluster, baseline: 0.00 ± 0.00
  BESS Vaginal symptom cluster, post-treatment: 0.07 ± 0.19
  BESS Vasomotor symptom cluster, Changes from baseline: 0.55 ± 1.05
  BESS Vasomotor symptom cluster, post-treatment: 0.88 ± 1.26
[1]; mean score ± SD, listed as oral-T
  BESS Vaginal symptom cluster, baseline: 0.00
[1]; whole study
  serious adverse events (CTCAE): no serious adverse events
SHBG; plasma after 6-10 weeks
  SHBG post-treatment: 143.9 ± 69.0 ng/mL
SHBG; plasma before treatment
  SHBG baseline: 98.4 ± 45.0 ng/mL
SHBG; plasma
  SHBG Changes from baseline: 45.5 ± 40.2 ng/mL
IGF-1; plasma after 6-10 weeks
  IGF-1 post-treatment: 50.3 ± 9.7 ng/mL
IGF-1; plasma before treatment
  IGF-1 baseline: 59.0 ± 11.4 ng/mL
IGF-1; plasma
  IGF-1 Changes from baseline: -8.7 ± 8.3 ng/mL
DCIS lesions; Ki-67 LI of DCIS lesions after 6-10 weeks, mean ± SD
  Ki-67 post-treatment: 3.2 ± 2.3%
DCIS lesions; mean ± SD
  Ki-67 baseline: 8.3%
DCIS lesions; mean ± SD, listed as Oral-T
  Ki-67 baseline: 8.3 ± 5.2%
DCIS lesions; Ki-67 LI of DCIS lesions, 6-10 weeks, mean ± SD
  Ki-67 Changes from baseline: −5.1 ± 5.5%
DCIS lesions; decrease from baseline in DCIS lesions, 6-10 weeks
  mean reduction of Ki-67 LI post-therapy: 5.1%
DCIS lesions; relative decrease, DCIS lesions
  drop in Ki67-LI relative to baseline: 61%
[2]
  median 4-OHT concentration in nontumor breast tissue (previous study): 2.0 ng/g
Total protein S; plasma after 6-10 weeks
  % Total Protein S post-treatment: 91.6 ± 12.2%
Total protein S; plasma before treatment
  % Total Protein S baseline: 94.3 ± 8.9%
Total protein S; plasma
  % Total Protein S Changes from baseline: −2.7 ± 9.3%
Von Willebrand factor; plasma after 6-10 weeks
  % vWF post-treatment: 218.6 ± 134.6%
Von Willebrand factor; plasma before treatment
  % vWF baseline: 167.4 ± 89.2%
Von Willebrand factor; plasma
  % vWF Changes from baseline: 51.2 ± 71.0%
